Tests used:
Assay in all cases: relative viability (nuclei count vs DMSO), 5 days (fraction); higher = more cells survive
[1] = compound: Cc1ccc(C(=O)Nc2cccc(C(F)(F)F)c2)cc1Nc1cncc(C(N)=O)c1 [ALW-II-49-7] + CS(=O)(=O)CCNCc1ccc(-c2ccc3ncnc(Nc4ccc(OCc5cccc(F)c5)c(Cl)c4)c3c2)o1 [Lapatinib] (partner 2 µM)
Procedure, shortened: (§1)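 Nuclei were stained with Hoechst during a one-step fixation (final 0.05% Triton X-100, 1% formaldehyde, 1 ug/ml Hoechst) carried out 5 days after dosing, then counted on 4× images. The cells, lung cancer lines in 1536-well plates, had been dosed by pin tool the day after seeding with one drug alone or a fixed anchor-drug dose plus five library-drug doses (not always all listed) in √10 steps. Relative viability is the nuclei count in treated wells divided by that in vehicle wells, and each value is the median of duplicate plates.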

[2] = compound: Cc1nc(Nc2ncc(C(=O)Nc3c(C)cccc3Cl)s2)cc(N2CCN(CCO)CC2)n1 [Dasatinib] + C[C@@H](Oc1cc(-c2cnn(C3CCNCC3)c2)cnc1N)c1c(Cl)ccc(F)c1Cl [Crizotinib] (partner 1 µM)
Procedure, shortened: as §1

[3] = compound: Cc1nc(Nc2ncc(C(=O)Nc3c(C)cccc3Cl)s2)cc(N2CCN(CCO)CC2)n1 [Dasatinib] + CC(=O)Nc1cccc(-n2c(=O)n(C3CC3)c(=O)c3c(Nc4ccc(I)cc4F)n(C)c(=O)c(C)c32)c1 [Trametinib] (partner 0.02 µM)
Procedure, shortened: as §1

[4] = compound: C1CC1C(=O)NC2=NNC3=C2C=CC(=C3)C4=CC(=CC=C4)C(=O)NC5CC5 [XMD13-2] + CC(=O)Nc1cccc(-n2c(=O)n(C3CC3)c(=O)c3c(Nc4ccc(I)cc4F)n(C)c(=O)c(C)c32)c1 [Trametinib] (partner 0.02 µM)
Procedure, shortened: as §1

| Cell Line | relative viability ([1]; first compound 0.08 µM) | relative viability ([1]; first compound 0.253 µM) | relative viability ([1]; first compound 0.8 µM) | relative viability ([1]; first compound 2.53 µM) | relative viability ([1]; first compound 8 µM) | relative viability ([2]; first compound 0.005 µM) | relative viability ([2]; first compound 0.01581 µM) | relative viability ([2]; first compound 0.05 µM) | relative viability ([2]; first compound 0.1581 µM) | relative viability ([2]; first compound 0.5 µM) | relative viability ([3]; first compound 0.005 µM) | relative viability ([3]; first compound 0.01581 µM) | relative viability ([3]; first compound 0.05 µM) | relative viability ([3]; first compound 0.1581 µM) | relative viability ([3]; first compound 0.5 µM) | relative viability ([4]; first compound 0.05 µM) | relative viability ([4]; first compound 0.1581 µM) | relative viability ([4]; first compound 0.5 µM) | relative viability ([4]; first compound 1.581 µM) | relative viability ([4]; first compound 5 µM) |
| --- | --- | --- | --- | --- | --- | --- | --- | --- | --- | --- | --- | --- | --- | --- | --- | --- | --- | --- | --- | --- |
| NCI-H2170 | 0.313 | 0.284 | 0.264 | 0.302 | 0.302 | 1.1 | 0.94 | 0.84 | 0.547 | 0.523 | 0.929 | 0.828 | 0.834 | 0.651 | 0.365 | 0.94 | 0.929 | 0.965 | 0.883 | 0.95 |
| NCI-H2228 | 0.996 | 0.595 | 0.984 | 1.08 | 0.659 | 0.296 | 0.431 | 0.257 | 0.152 | 0.17 | 0.463 | 0.776 | 0.556 | 0.39 | 0.249 | 0.672 | 0.577 | 0.517 | 0.602 | 0.634 |
| NCI-H2347 | 1.11 | 0.958 | 1.11 | 0.85 | 0.8 | 0.316 | 0.397 | 0.355 | 0.301 | 0.369 | 0.25 | 0.277 | 0.221 | 0.157 | 0.164 | 0.294 | 0.268 | 0.211 | 0.291 | 0.265 |
| NCI-H2405 | 1.01 | 1.24 | 0.972 | 0.938 | 0.89 | 0.698 | 0.568 | 0.493 | 0.258 | 0.194 | 0.431 | 0.365 | 0.351 | 0.272 | 0.233 | 0.73 | 0.656 | 0.628 | – | 0.65 |
| NCI-H3122 | 1.11 | 0.92 | 1.05 | 1.11 | 1.05 | 0.261 | 0.332 | 0.347 | 0.253 | 0.223 | 0.234 | 0.249 | 0.248 | 0.222 | 0.192 | 0.251 | 0.198 | 0.205 | 0.235 | 0.214 |

Reference: the supplement of paper PMC10307832
